Structures are written as SMILES.

The subject of one assay is tonic extensor seizure. The assay can be described thus: maximal electroshock test (MES). In kind it is in vivo, mouse (albino male CRS-CD1). Conditions: PO, mouse, 4 hr, read-out: % Block (MES Test, mouse). How it is done:
The compounds of formula (I) are particularly useful as anticonvulsant agents in mammals including humans. The anticonvulsant activity of the subject compounds was determined using a standard "maximal electroshock test" (MES). In this test, activity is indicated by a block of the […] extensor seizure caused by application of an electric shock to mice via corneal electrodes, as described by Swinyard et al. in J. Pharmacol. Expt. Ther. 1952, 106, 319, and recorded as % block. A more recent description of current anticonvulsant drug screening is given by Swinyard in Epilepsia 1978, 19, 409. The anticonvulsant activity of the compounds of this invention tested according to the Swinyard 1952 method is shown in the following Table I.
In the test, albino male CRS-CD1 mice weighing between 18-25 g were used in all experiments (obtained from Charles River). They were allowed food and water ad libitum and were used only once. The electroshock apparatus and the corneal electrodes were purchased from Wahlquist Instrument Company, Salt Lake City, Utah.
Maximal electroshock seizures were induced by the delivery of a 60 Hertz (Hz) current of 50 milliamps (mA) intensity to the mouse through corneal electrodes for 0.2 seconds as originally described by Swinyard et al. (1952). This stimulus intensity is approximately 4 to 6 times the current producing 100% tonic extensor convulsions. During the validation of the MES test, the duration of the various seizure components following maximal electroshock were measured as follows: hindleg tonic flexion was measured from the time of the application of the stimulus to the time of onset of hindleg tonic extension (i.e. when the hindlegs deviate by greater than an angle of 90° from the torso), hindleg tonic extensor was measured from the time of extensor thrust to the onset of generalized clonus, and terminal clonus was measured from the beginning to the end of bilateral rhythmic clonic jerking. Mortality was also recorded. The duration of each seizure component agreed well with the values previously reported by Tedeschi et al. in J. Pharmacol. Expt. Ther. 1955, 116, 107. The corneal electrodes were concave so that saline could be applied to the electrodes to reduce mortality. If this procedure is followed, mortality should always be less than 40% in control mice. Thus, at an electroshock stimulus of 60 Hz, 50 mA and 0.2 seconds duration, the order of convulsive components and the percentage of control animals displaying the behaviors should be as follows: tonic flexion (100%), tonic extension (100%) and clonus (100%) with less than 40% mortality.
For testing compounds, the abolition of the tonic extensor component was the endpoint. Animals were dosed orally (PO) with either vehicle or test drug and at a specified time were given a maximal electric shock through corneal electrodes blotted with saline (as described above). A minimum of 10 animals were used per group and the percentage of animals in the group without tonic hindlimb extension recorded. Determination of ED50 values (that dose of drug inhibiting 50% of the tonic extensor seizures) is shown below in Table I.

The next assay relates to Total Acid Output. The assay can be described thus: pylorus-ligated rat test, gastric antisecretory activity. Conditions: IP, 200 mg/kg. It counts as in vivo, rat (male Charles River Sprague-Dawley derived). Here is the method: The gastric antisecretory activity of the compounds shown in Table II was determined by the pylorus-ligated rat test described by Shay et al. in Gastroenterol. 1954, 26, 906. In this method, male Charles River Sprague-Dawley derived rats weighing 150-300 grams were deprived of food but not water for 18-24 hours prior to use. Water was withheld during the experiment, however. The rats were weighed, lightly anesthetized with ether and the pylorus ligated according to the method of Shay et al., supra. The treatment or vehicle control was then administered intraperitoneally (IP) or orally (PO). When administered by the IP route, the administration was done 30 minutes before ligation. When administered by the PO route, the administration was done prior to ligation (about 1/2 to 3 hours before). Rats were housed two per cage and sacrificed with carbon dioxide 3 hours after ligation. Their stomachs were removed, rinsed, and contents emptied into a graduated centrifuge tube. The tubes were centrifuged, the volume of gastric juice was recorded, and any samples obviously contaminated by feces, food or blood were eliminated. A 1 mL aliquot of gastric juice was titrated with 0.1N NaOH to a pH of 7.0-7.4. The volume of gastric juice secreted, the acid concentration, and the product of the volume times the concentration, i.e. the total amount of acid secreted, were measured. The total acid output was calculated by multiplying the volume of gastric juices collected times the hydrogen ion concentration (amount of NaOH added to a sample to reach a pH of 7.0-7.4) and dividing that value by 10. The mean value of the total acid output for a control group of rats was then subtracted from the mean value of the total acid output for the group of rats tested at the same dose. That value was then divided by the mean value of total acid output for the control group and the resulting number was multiplied by 100 to provide a Percent Inhibition value, which values are reported in Table II. The […] was determined statistically as the dose at which a 50% inhibition would be realized.

A short description of the next assay: rat diuresis study. It counts as in vivo, rat (male Wistar). Particulars: 2.5 mg/kg PO, average of five animals. The text has this: Evidence for the inhibition of carbonic anhydrase by compounds of the formula (I) can also be obtained by a diuresis study, such as described by A. Weiner in Goodman and Gilman's The Pharmacological Basis of Therapeutics, 8th ed.; Goodman Gilman, A.; Rall, T. W.; Nies, A. S.; Taylor, P., Eds.; Pergamon Press: New York, 1990; pp 716-718. An increase in urine akalinity accompanied with an increase in water intake and urine output provides an indirect indication of carbonic anhydrase inhibition activity. Male Wistar rats having a weight of 250-300 g were dosed orally (PO) and housed in cages that allowed for the quantitative measure of fluid intake and urine output. Water intake and urine output were measured at 24 hours versus control, whereas urine pH, obtained via pH meter, was measured at 4 and 24 hours versus control. The results of this study, which are the average of five animals, are reported below in Table III. […] Such data is also an indication of the usefulness of the compounds of formula (I) as diuretics in the treatment of hypertension, congestive heart failure and other types of edema. The determination of suitable dosages for such compounds for the treatment of hypertension and congestive heart failure and other types of edema is within the skill of the art.

Regarding `CC1(C)O[C@H]2[C@@H]3OS(=O)(=O)O[C@@H]3CO[C@@]2(COS(=O)(=O)NC2CC2)O1` [Example 9, 2,3-O-(1-Methylethylidene)-4,5-O-sulfonyl-β-D-fructopyranose Cyclopropylsulfamate], the responders at 10 mg/kg with tonic extensor seizure (10 mg/kg) was found to be 90%. Moreover, in the assay with Total Acid Output, the “Percent Inhibition of Total Acid Output” value is reported as 87%. The “Urine pH” value in the assay “rat diuresis study” (4 hours, control 6.98) was 9.02; in the assay “rat diuresis study” (24 hours, control 6.43) it was 7.26. The “Water Intake” value in “rat diuresis study” (24 hours, control 15.0) was found to be 27.8 mL. For the same compound, the “Urine Output” value in “rat diuresis study” (24 hours, control 17.6) was 33.2 mL.

In the case of `CC1(C)O[C@H]2[C@@H]3OS(=O)(=O)O[C@@H]3CO[C@@]2(COS(=O)(=O)NC2CCCCCCC2)O1` [Example 11, 2,3-O-(1-Methylethylidene)-4,5-O-sulfonyl-β-D-fructopyranose Cyclooctylsulfamate], the responders at 75 mg/kg in the assay with tonic extensor seizure (75 mg/kg) is 30%. In addition, the “Percent Inhibition of Total Acid Output” value in the assay with Total Acid Output stood at 50%.

Regarding `CC1(C)O[C@H]2[C@@H]3OS(=O)(=O)O[C@@H]3CO[C@@]2(COS(=O)(=O)N=[N+]=[N-])O1` [Example 15, 2,3-O-(1-Methylethylidene)-4,5-O-sulfonyl-β-D-fructopyranose Azidosulfate], the responders at 35 mg/kg with tonic extensor seizure (35 mg/kg) is 100%. Moreover, the “Percent Inhibition of Total Acid Output” value in the assay with Total Acid Output amounted to 96%.

For `NS(=O)(=O)OC[C@@]12OC[C@H]3OS(=O)(=O)O[C@H]3[C@@H]1OC1(CCCCC1)O2` [Example 21, 2,3-O-(Cyclohexylidene)-4,5-O-sulfonyl-β-D-fructopyranose Sulfamate], the “Percent Inhibition of Total Acid Output” value in the assay with Total Acid Output was found to be 27%.
